Patent US5129937A, “Pyridyloxypyrimidine derivatives, preparation process thereof, and herbicidal compositions containing the same as active ingredients” (Mitsui Toatsu Chemicals Incorporated, priority 1989, dated 1992)

Experiments:
Soybean (Glycine max) = test: Upland Foliar Application Test, crop injury; format: in vivo; settings: 30 g ai/a; foliar application at 2-3 leaf stage, emulsion; observed on the 30th day
Source text: (§1) Resin-made 1/10000-are pots were filled with the soil of an upland field. Redroot pigweed, morningglory (Ipomoea pupurea), common lambsquarters, foxtail meadow, johnsongrass, barnyardgrass, green foxtail, large crabgrass, soybean, corn and cotton were separately seeded and were allowed to germinate in a green house. When each plant grew to the stage of 2-3 leaves, an emulsion formulated from a predetermined amount of each test compound in a similar manner to the method described in Formulation Example 11 was diluted with water and then sprayed at a predetermined application rate by means of a pressure-operated ULV (ultra low volume) sprayer. The application rate was controlled at 5 l per are. Influence to the crops and weeds were observed on the 30th day after the spray of the herbicides. The results are shown in Table 4 in which the degree of damages of each test plant and the degree of injury to each crop are shown in a similar manner to Test 2.

[1] = system: Cotton (Gossypium indicum); test: Upland Foliar Application Test, crop injury; format: in vivo; settings: 30 g ai/a; foliar application at 2-3 leaf stage, emulsion; observed on the 30th day
Source text: as §1

Corn (Zea maize) = test: Upland Foliar Application Test, crop injury; format: in vivo; settings: 30 g ai/a; foliar application at 2-3 leaf stage, emulsion; observed on the 30th day
Source text: as §1

[2] = system: ALS (acetolactate synthase); test: ALS (Acetolactate Synthase) Inhibition Test, barnyardgrass enzyme; format: biochemical; settings: enzymoreaction inhibition rate at 10 ppm (5 μg/0.5 ml)
Protocol: To determine the selectivity in enzyme level between crops and weeds, an ALS inhibition test was conducted using pea as a representative of broadleaf crops and barnyardgrass as a representative of gramineous weeds.
After seeds of pea and barnyardgrass were allowed to germinate at 25° C. for 8-14 days in a dark place, partially-purified suspensions (Suspensions A) of acetolactate syntase were separately obtained from seedlings in accordance with the method described in the literature, Plant Physiology, 75, 827-831. In a test tube, […], followed by the addition of 0.15 ml of a 20 mM K2 HPO4 solution and 0.25 ml of a reaction substrate medium which consisted of 40 mM of K2 HPO4, 40 mM of sodium pyruvate, 1 mM of TPP, 1 mM of MgCl2 and 20 μM of FAD so that 0.4 ml of a reaction solution (Solution B) was prepared. Added to 0.4 ml of Solution B was 0.1 ml of Suspension A. After the resultant mixture was shaken for 1 hour in a thermostat water bath controlled at 30° C., 50 μl of 6N sulfuric acid were added to terminate the reaction.
Next, the reaction-terminated liquid mixture was transferred into a thermostat water bath controlled at 60° C. and was heated for 15 minutes. Thereafter, 0.5 ml of a 0.5% creatine solution and 0.5 ml of a 5% alkaline α-naphthol solution were added, and the resultant mixture was maintained at 60° C. for 15 minutes. As a result, the test solution developed a pink-red color. After the above operation, the absorbance of the test solution at 525 nm was measured by a spectrophotometer (Absorbance 1 of Test Compound).
On the other hand, the absorbance (Absorbance 2 of Blank) of a solution obtained by subjecting a portion of Solution B, said portion being free of the test compound, to the above operation and the absorbance (Absorbance 3 of sulfuric acid terminated) of another solution obtained by subjecting another portion of Solution B, said portion containing 50 μl of 6N sulfuric acid as a test compound, were measured at the same time. […] [formula]

[3] = system: Barnyardgrass (Echinochloa crus-galli); test: Upland Foliar Application Test; format: in vivo; settings: 30 g ai/a; foliar application at 2-3 leaf stage, emulsion; observed on the 30th day
Source text: as §1

[4] = system: Crabgrass (Digitaria adsendens); test: Upland Foliar Application Test; format: in vivo; settings: 30 g ai/a; foliar application at 2-3 leaf stage, emulsion; observed on the 30th day
Source text: as §1

Foxtail meadow [5] = test: Upland Foliar Application Test; format: in vivo; settings: 30 g ai/a; foliar application at 2-3 leaf stage, emulsion; observed on the 30th day
Source text: as §1

Johnsongrass [6] = test: Upland Foliar Application Test; format: in vivo; settings: 30 g ai/a; foliar application at 2-3 leaf stage, emulsion; observed on the 30th day
Source text: as §1

Redroot Pigweed [7] = test: Upland Foliar Application Test; format: in vivo; settings: 30 g ai/a; foliar application at 2-3 leaf stage, emulsion; observed on the 30th day
Source text: as §1

[8] = system: Foxtail (Setaria viridis); test: Upland Foliar Application Test; format: in vivo; settings: 30 g ai/a; foliar application at 2-3 leaf stage, emulsion; observed on the 30th day
Source text: as §1

Common lambsquarters [9] = test: Upland Foliar Application Test; format: in vivo; settings: 30 g ai/a; foliar application at 2-3 leaf stage, emulsion; observed on the 30th day
Source text: as §1

[10] = system: Barnyardgrass (Echinochloa crus-galli); test: Submerged Soil Treatment Test (Pre-Emergence Treatment); format: in vivo; settings: 30 g ai/a, granule, observed 30 days later
Protocol: (§2) 1/5000-are Wagner pots were filled with soil. Seeds or tubers of barnyardgrass, bulrush and Sagittaria pygmaea were seeded or planted under submerged condition. Two pairs of rice seedlings (2-3 leaf stage), which had been reared in advance, were transplanted to each pot and were allowed to germinate in a green house. Each pair consisted of two rice seedlings. On day later (before emergence of weeds), each pot was treated with a granule which had been prepared by processing a predetermined amount of the test composition in accordance with a similar method to the method described in Formulation Example 9. The state of emergence of weeds and the state of injury of rice were observed 30 days later. In the table, the degrees of damages of the test plants and the degrees of injury of rice are shown in a similar manner to Example 2.

[11] = system: Arrowhead sp. (Sagittaria pygmaea); test: as above; format: in vivo; settings: 30 g ai/a, granule, observed 30 days later
Protocol: as §2

[12] = system: Bulrush (Scirpus juncoides); test: as above; format: in vivo; settings: 30 g ai/a, granule, observed 30 days later
Protocol: as §2

[13] = system: Barnyardgrass (Echinochloa crus-galli); test: Upland Soil Application Test; format: in vivo; settings: 30 g ai/a; soil application before emergence, wettable powder; observed 30 days later
Protocol: (§3) Resin-made 1/2500-are pots were filled with the soil of an upland field. After they were fertilized, soybean, corn and cotton were seeded and 2-3 cm soil covering was applied. Seeds of redroot pigweed, morningglory (Ipomoea purpurea), common lambsquarters, barnyardgrass, green foxtail, large crabgrass, foxtail meadow and johnsongrass had been uniformly mixed with the soil. They were allowed to germinate in a green house. One day later (before emergence of weeds), a wettable powder prepared from a predetermined amount of each test compound in a similar manner to the method described in Formulation Example 1 was diluted with water and then sprayed evenly at an application rate equal to 10 l per are onto the surface of the soil by means of a pressure-operated ULV (ultra low volume) sprayer. Influence to the crops and weeds were observed 30 days later. The results are shown in Table 3, in which the degree of damages of each test plant and the degree of injury to each crop were determined by comparing the air-dried weights of the test plant and crop with those of the corresponding plant and crop in untreated pots and are shown in accordance with the following standard: […]

[14] = system: Crabgrass (Digitaria adsendens); test: Upland Soil Application Test; format: in vivo; settings: 30 g ai/a; soil application before emergence, wettable powder; observed 30 days later
Protocol: as §3

Foxtail meadow [15] = test: Upland Soil Application Test; format: in vivo; settings: 30 g ai/a; soil application before emergence, wettable powder; observed 30 days later
Protocol: as §3

Johnsongrass [16] = test: Upland Soil Application Test; format: in vivo; settings: 30 g ai/a; soil application before emergence, wettable powder; observed 30 days later
Protocol: as §3

Redroot Pigweed [17] = test: Upland Soil Application Test; format: in vivo; settings: 30 g ai/a; soil application before emergence, wettable powder; observed 30 days later
Protocol: as §3

[18] = system: Foxtail (Setaria viridis); test: Upland Soil Application Test; format: in vivo; settings: 30 g ai/a; soil application before emergence, wettable powder; observed 30 days later
Protocol: as §3

Common lambsquarters [19] = test: Upland Soil Application Test; format: in vivo; settings: 30 g ai/a; soil application before emergence, wettable powder; observed 30 days later
Protocol: as §3

Structure (SMILES)	Crop injury Soybean (Glycine max) (Soybean (Glycine max))	Crop injury Cotton (Gossypium indicum) [1]	Crop injury Corn (Zea maize) (Corn (Zea maize))	Inhibition rate (%) Barnyardgrass [2] [%]	Herbicidal effects Barnyardgrass (Echinochloa crus-galli) [3]	Herbicidal effects Crabgrass (Digitaria adsendens) [4]	Herbicidal effects Foxtail meadow (Foxtail meadow [5])	Herbicidal effects Johnsongrass (Johnsongrass [6])	Herbicidal effects Redroot Pigweed (Redroot Pigweed [7])	Herbicidal effects Foxtail (Setaria viridis) [8]	Herbicidal effects Common lambquarters (Common lambsquarters [9])	Herbicidal effects Barnyardgrass (Echinochloa crus-galli) [10]	Herbicidal effects Arrowhead sp. (Sagittaria pygmaea) [11]	Herbicidal effects Bulrush (Scirpus juncoides) [12]	Herbicidal effects Barnyardgrass (Echinochloa crus-galli) [13]	Herbicidal effects Crabgrass (Digitaria adsendens) [14]	Herbicidal effects Foxtail meadow (Foxtail meadow [15])	Herbicidal effects Johnsongrass (Johnsongrass [16])	Herbicidal effects Redroot Pigweed (Redroot Pigweed [17])	Herbicidal effects Foxtail (Setaria viridis) [18]	other results
COc1cc(OC)nc(Oc2cccnc2C(OC)OC(C)C)n1 (stereo not drawn) [Compound No. 5, 3-(4.6-dimethoxy-2-pyrimidinyloxy)-2-pyridinecarboxaldehyde isopropylmethylacetal]	0 (91-100 (No damages))	0 (91-100 (No damages))	0 (91-100 (No damages))	100	5 (0-5 (Death))	4 (6-10 (Severe damages))	5 (0-5 (Death))	5 (0-5 (Death))	5 (0-5 (Death))	5 (0-5 (Death))	4 (6-10 (Severe damages))	5 (0-5 (Death))	5 (0-5 (Death))	5 (0-5 (Death))	4 (6-10 (Severe damages))	4 (6-10 (Severe damages))	5 (0-5 (Death))	5 (0-5 (Death))	5 (0-5 (Death))	5 (0-5 (Death))	Herbicidal effects Common lambquarters (Common lambsquarters [19]): 5 (0-5 (Death))
COc1cc(OC)nc(Oc2cccnc2C2OCCO2)n1 [Compound No. 6]	0 (91-100 (No damages))	0 (91-100 (No damages))	0 (91-100 (No damages))	96	4 (6-10 (Severe damages))	4 (6-10 (Severe damages))	5 (0-5 (Death))	5 (0-5 (Death))	5 (0-5 (Death))	4 (6-10 (Severe damages))	4 (6-10 (Severe damages))	5 (0-5 (Death))	5 (0-5 (Death))	5 (0-5 (Death))	3 (11-40 (Medium damages))	3 (11-40 (Medium damages))	4 (6-10 (Severe damages))	5 (0-5 (Death))	4 (6-10 (Severe damages))	4 (6-10 (Severe damages))	Herbicidal effects Common lambquarters (Common lambsquarters [19]): 4 (6-10 (Severe damages))
COc1cc(OC)nc(Oc2cccnc2C2OCC(C)O2)n1 (stereo not drawn) [Compound No. 7]	0 (91-100 (No damages))	0 (91-100 (No damages))	0 (91-100 (No damages))	87	5 (0-5 (Death))	4 (6-10 (Severe damages))	5 (0-5 (Death))	5 (0-5 (Death))	5 (0-5 (Death))	5 (0-5 (Death))	4 (6-10 (Severe damages))	5 (0-5 (Death))	4 (6-10 (Severe damages))	5 (0-5 (Death))	5 (0-5 (Death))	4 (6-10 (Severe damages))	4 (6-10 (Severe damages))	5 (0-5 (Death))	4 (6-10 (Severe damages))	5 (0-5 (Death))	Herbicidal effects Common lambquarters (Common lambsquarters [19]): 4 (6-10 (Severe damages))
